Experimental data from publication PMC7735645 (Journal of the American Chemical Society, 2019).

Columns and labels:
DNA damage = DNA damage in treated cells; type: cell-based; conditions: early time points, unpublished data from the authors' lab
A549 cells [1] = experiment: NPM1 relocalization; type: cell-based; conditions: for NPM1 redistribution: free ligand alone, Figures S2 and S3
A549 cells [2] = experiment: 24 h IC50; type: cell-based; conditions: read-out: 24 h IC50 value, Table S1
[3] = water/octanol partition coefficient; type: physicochemical
[4] = A549 cells, 24 h treatment, 10 μM

N.N.[Cl][Pt][Cl] [compound 1, cisplatin, reference compound]
DNA damage relative to NPM1 relocation (DNA damage): DNA damage occurs at early time points | NPM1 redistribution / nucleolar stress induction (A549 cells [1]; [4]): more closely resembles that of the no-treatment control | NPM1 redistribution / nucleolar stress induction (A549 cells [1]; A549 cells, 24 h treatment, 10 μM, listed as cisplatin): a small amount of NPM1 redistribution was observed

NC1CCCCC1N (stereo not drawn) [DACH ligand, diaminocyclohexane, reference compound]
NPM1 redistribution (A549 cells [1]): no influence on NPM1 redistribution

O=C1[O][Pt]2([NH][C@@H]3CCCC[C@H]3[NH]2)[O]C1=O [compound 2, oxaliplatin, reference compound]
DNA damage relative to NPM1 relocation (DNA damage): no such damage occurs prior to observed NPM1 distribution | NPM1 redistribution / nucleolar stress induction (A549 cells [1]; [4]): induces robust redistribution of NPM1 | NPM1 redistribution / nucleolar stress induction (A549 cells [1]; A549 cells, 24 h treatment, 10 μM, listed as Oxaliplatin): robust NPM1 relocalization | IC50 (A549 cells [2]): 81.5 µM

O=C(O)C(=O)O [oxalic acid ligand, oxalic acid, reference compound]
NPM1 redistribution (A549 cells [1]): no influence on NPM1 redistribution

N.N.O=C([O-])C(=O)[O-].[Pt+2] [compound 5, DOAP]
NPM1 redistribution / nucleolar stress induction (A549 cells [1]; [4]): does not induce stress

Pentaplatin [compound 9]
NPM1 redistribution / nucleolar stress induction (A549 cells [1]; [4]): found to induce nucleolar stress | coefficient of variation (CV) of NPM1 intensity (A549 cells [1]; [4]): slightly higher resultant CV than positive controls or oxaliplatin

[NH2][Pt]1([NH2])[O]C(=O)C2(CCC2)C(=O)[O]1 [compound 3, carboplatin, reference compound]
NPM1 redistribution / nucleolar stress induction (A549 cells [1]; [4]): more closely resembles that of the no-treatment control

NC1CCCCC1N.[Cl][Pt][Cl] (stereo not drawn) [compound 4, DACHPt]
NPM1 redistribution / nucleolar stress induction (A549 cells [1]; [4]): induces robust nucleolar stress | relative hydrophobicity (water/octanol partition coefficient, log P) [3]: more hydrophobic than the simpler diam(m)ine compounds
